Article PMC10885153, “Membrane Permeability in a Large Macrocyclic Peptide Driven by a Saddle-Shaped Conformation” (Journal of the American Chemical Society, 2024)
In brackets after ≈: the same amount, converted by molar mass. Read-outs that look alike come from different tables or passages of the source. Positions of bridges follow the written chain, without caps; N, C: chain ends. Non-standard residues stand in square brackets, D forms with d. Residues, ends and D or L forms follow the SMILES beside them. Cha = N[C@@H](CC1CCCCC1)C(=O)O; NMeNva = CCC[C@H](NC)C(=O)O; NMeC = CN[C@@H](CS)C(=O)O; NMeA = CN[C@@H](C)C(=O)O; dAbu = CC[C@@H](N)C(=O)O; dNMeA = CN[C@H](C)C(=O)O; Nva = CCC[C@H](N)C(=O)O; Abu = CC[C@H](N)C(=O)O; Nleu = CC(C)CNCC(=O)O; NPrGly = CCCNCC(=O)O; NEtG = CCNCC(=O)O

How the values were obtained:
[1] = in vitro; conditions: PAMPA
Method: (§1) assay was carried out with a 96-well donor plate with 0.45 μ hydrophobic Immobilon-P membrane supports
(Millipore MAIPNTR10) and a 96-well Teflon acceptor plate (Millipore MSSACCEPTOR). The PAMPA
protocol then proceeded as follows:
(§2) Donor well solutions were prepared to a volume of 1 000 µL with the analytes as a solution in 1X
(§3) PBS pH 7.4 and 5% DMSO. To a 3 mL Eppendorf tube was added 950 µL of 1X PBS pH 7.4, 40
Analyte – 10 µM per compound
(§4) sonicated (5 min) to ensure full dissolution of the lecithin. The donor membrane plate was turned
(§5) upside down and bottom of the membranes exposed. 5 µL of the 1% soy lecithin solution in
(§6) dodecane was then placed on the bottom of the membrane, allowing the drop to spread across the
full area of the membrane. Any membranes with visible damage were not used in the assay. The
(§7) membranes were allowed to equilibrate for 5 min before loading.
3. Each well within the Teflon block acceptor plate that was to be used in the assay was then loaded
(§8) with 300 µL of 1X PBS pH 7.4 and 5% DMSO.
(§9) Working without break, 150 µL of each donor well solution was transferred from the to the 96-well
(§10) donor plate. Each mixture of interest was r un in quadruplicate, using a new well for each replicate.
(§11) As soon as the 96-well donor plate was finished being loaded, it was gently placed into the 96-well
(§12) Teflon acceptor plate, taking care not to trap any air bubbles beneath the membrane.
(§13) The donor/acceptor plates were covered gently with the lid to minimize evaporation and transferred
(§14) gently as a system to a sealed chamber and left to sit overnight at room temperature. The chamber
(§15) was kept from drying by placing a wet paper towel within to prevent evaporation.
(§16) After ~19-20 hours the donor plate was removed from the acceptor plate.
(§17) 50 µL of each well (donor and acceptor) were transferred to a 96 -well plate and diluted with 50 µL
(§18) of methanol prior to heat sealing and quantification by UPLC -MS.

[2] = PAMPA, 10 µM, pH 7.4
Method: (§19) Passive permeabilities of the 36 compounds were measured in multiplex as mixtures of six compounds each using the parallel artificial membrane permeability assay (PAMPA).[44]−[46]
(§20) Protocol is identical for both mixture and pure compound analysis.
(§21) Two of the following: Carbamazepine (CBZ), propranolol (Prop), and 1NMe35 were
(§22) included as internal standards and prepared as DMSO stocks at a concentration of 2 000 µM.
as §1
(§23) (Millipore MAIPNTR10) and a 96-well Teflon acceptor plate (Millipore MSSACCEPTOR).
protocol then proceeded as follows:
as §2, §3
(§24) The solutions were vortexed and set aside.
Analyte – 10 µM per compound
(§25) A 1% solution of soy lecithin in dodecane was freshly prepared in a 3 mL Eppendorf tube and
as §4, §5, §6
(§26) full area of the membrane. Any membranes with visible damage were not used in the assay.
as §7
(§27) Each well within the Teflon block acceptor plate that was to be used in the assay was then loaded
as §8, §9, §10, §11, §12, §13, §14, §15, §16, §17, §18

[3] = physchem; conditions: pH 7.4, aqueous with cosolvent or surfactant or cyclodextrin, kinetic from dmso stock
Method: Kinetic Solubility PBS Protocol
4 µL of 10 mM compound in DMSO stock was added to 196 µL 1 X PBS pH 7.4 in a 96 -well microplate to
get a final concentration of 200 µM to shake for 24 hours at 1000 rpm. The sample was filtered sample
using a 96-Multiscreen HTS filter plate (Millipore MSSL BPC50) and a positive pressure manifold.

[4] = in vitro; conditions: dog, pH 7.4
Method: (§28) We also tested the permeabilities of the pure compounds in a cell-based trans-well permeability assay using Mdr1 knockout Madin–Darby canine kidney (MDCK) cells which minimize the endogenous efflux activity of traditional MDCK cells.[54]
(§29) The gMDCKI cell line (overexpressed cell line of Madin -Darby Canine Kidney which acquired from the NIH)
(§30) maintained in DMEM medium supplemented with 1% pen -strep, 5 µg/mL Plasmocin, and 10% FBS under
(§31) standard culture conditions (37 °C, 95% humidity, and 5% CO2), were seeded (0.75 x 10^5 cells) on the HTS
(§32) Transwell-96 permeable support (Corning) to form a confluent monolayer for two days.
(§33) All experimental steps were fully automated on Hamilton Vantage. Compound stock solution (1 mM in
(§34) DMSO) was diluted (10 μM final in HBSS, pH 7.4) with Lucifer Yellow as leakage indicator (20 μM). After
(§35) washing with HBSS buffer, the solution of test compounds was added to the apical side of the monolayers.
(§36) The plate was incubated for 3 h at 37 °C. T0 samples (10 µL of the 10 µM compounds diluted solution with
(§37) LY) were transferred to a 96-well plate, and then 40 µL of HBSS was added. After 3 hours, 50 μL basolateral
(§38) samples in the receiving plate were transferred to a fresh 96-well plate and added 100 μL of IS solution
(§39) (Propranolol). LY were read by plate reader and the samples were analyzed by LC/MS/MS.
(§40) The apparent permeability coefficient (Papp) is calculated from the permeation rate and compound
concentration at t=0h and t=3h. Where:
(§41) dQ/dt: amount of product present in the basal (A-B) or apical (B-A) compartment as a function of time
A: area of transwell (cm2).
(§42) C0: initial concentration of product applied in the apical (A -B) or basal (B-A) compartment (nmol/ml).

[5] = test system: Mdr1 knockout Madin–Darby canine kidney (MDCK) cells
Method: as §28, §29, §30, §31, §32, §33, §34, §35, §36, §37, §38, §39, §40
concentration at t=0h and t=3h. Where:
as §41
A: area of transwell (cm2).
as §42

[6] = in vitro; conditions: PAMPA, pH 7.4, Permeability (Papp) PAMPA (mixture)
Method: as §19, §20, §21, §22, §1, §23
protocol then proceeded as follows:
as §2, §3, §24
Analyte – 10 µM per compound
as §25, §4, §5, §6, §26, §7, §27, §8, §9, §10, §11, §12, §13, §14, §15, §16, §17, §18

[7] = pH 7.4, Permeability (Papp) PAMPA (indiv.)

SMILES	Papp at 10 µM [1, 7] [×10⁻⁶ cm/s]	%R_avg [2] [%]	solubility kinetic at 24 h [3] [µM]	Papp A→B at 3 h, 10 µM ([4]; MDCK) [×10⁻⁶ cm/s]	Papp at 10 µM ([1]; pH 7.4, PAMPA Papp) [×10⁻⁶ cm/s]	Papp at 3 h, 10 µM ([4]; MDCK) [×10⁻⁶ cm/s]	Papp A→B at 3 h, 10 µM [4] [×10⁻⁶ cm/s]	also measured
CCC[C@@H]1NC(=O)[C@H](C)N(C)C(=O)[C@H](CC(C)C)NC(=O)CSC[C@@H](C(=O)OCC)N(C)C(=O)[C@H](CC(C)C)NC(=O)[C@H](C)N(C)C(=O)[C@H](CC2CCCCC2)NC(=O)CN(CC)C(=O)[C@H]2CCCN2C1=O [LA09, O=C(N(C)[C@H](C(OCC)=O)CSCC(N[C@H](C(N(C)[C@@H](C)C(N[C@@H](CCC)C(N1[C@H](CCC1)C(N(CC)CC(N[C@H]2CC3CCCCC3)=O)=O)=O)=O)=O)CC(C)C)=O)[C@H](CC(C)C)NC([C@H](C)N(C)C2=O)=O] ({CH2CO}-L[NMeA][Nva][dP][NEtG][Cha][NMeA]L[NMeC]-OEt; thioether N-9)	0.2	7.5	10 (≈ 10.3 µg/mL)	5.1				
CCC[C@@H]1NC(=O)[C@H](C)N(C)C(=O)[C@H](CC(C)C)NC(=O)CSC[C@@H](C(=O)OCC)N(C)C(=O)[C@H](CC(C)C)NC(=O)[C@H](C)N(C)C(=O)[C@H](CC(C)C)NC(=O)[C@H](CCC)N(C)C(=O)[C@H]2CCCN2C1=O [LC07, O=C(N(C)[C@H](C(OCC)=O)CSCC(N[C@H](C(N(C)[C@@H](C)C(N[C@@H](CCC)C(N1[C@H](CCC1)C(N(C)[C@@H](CCC)C(N[C@H]2CC(C)C)=O)=O)=O)=O)=O)CC(C)C)=O)[C@H](CC(C)C)NC([C@H](C)N(C)C2=O)=O] ({CH2CO}-L[NMeA][Nva][dP][NMeNva]L[NMeA]L[NMeC]-OEt; thioether N-9)	1.1	4.5	109 (≈ 111 µg/mL)	3.9				
CCOC(=O)[C@@H]1CSCC(=O)N[C@H](CC)C(=O)N(C)[C@@H](C)C(=O)N[C@@H](CC(C)C)C(=O)N(C)[C@H](C)C(=O)N(CC(C)C)CC(=O)N[C@H](CC(C)C)C(=O)N(C)[C@@H](C)C(=O)N[C@@H](CC(C)C)C(=O)N1C [A1-7L, O=C(N(C)[C@H](C(OCC)=O)CSCC(N[C@@H](C(N(C)[C@@H](C)C(N[C@@H](CC(C)C)C(N(C)[C@H](C)C(N(CC(C)C)CC(N[C@@H]1CC(C)C)=O)=O)=O)=O)=O)CC)=O)[C@H](CC(C)C)NC([C@H](C)N(C)C1=O)=O] ({CH2CO}-[dAbu][NMeA]L[dNMeA][Nleu][dL][NMeA]L[NMeC]-OEt; thioether N-9)								MDCK Pe_avg ([5]; resynthesized stereoscan compounds, 10 μM, HBSS pH 7.4, 3 h): 6.41 ×10⁻⁶ cm/s
CCCN1CC(=O)N[C@@H](CC(C)C)C(=O)N2CCC[C@@H]2C(=O)N(C)[C@@H](C)C(=O)N[C@@H](CC)C(=O)N(C)[C@@H](C)C(=O)N[C@@H](CC(C)C)C(=O)N(C)[C@H](C(=O)OCC)CSCC(=O)N[C@@H](CC(C)C)C1=O [LB04, O=C(N(C)[C@H](C(OCC)=O)CSCC(N[C@H](C1=O)CC(C)C)=O)[C@H](CC(C)C)NC([C@H](C)N(C)C([C@H](CC)NC([C@H](C)N(C)C([C@@H]2N(C([C@H](CC(C)C)NC(CN1CCC)=O)=O)CCC2)=O)=O)=O)=O] ({CH2CO}-L[NPrGly]L[dP][NMeA][Abu][NMeA]L[NMeC]-OEt; thioether N-9)		35.8	105 (≈ 104 µg/mL)	2.6				MDCK Papp_avg ([5]; dog, MDCK, 3 h, 10 µM, pH 7.4): 2.6 ×10⁻⁶ cm/s
CCC[C@@H]1NC(=O)[C@H](C)N(C)C(=O)[C@H](CC(C)C)NC(=O)CSC[C@@H](C(=O)OCC)N(C)C(=O)[C@H](CC(C)C)NC(=O)[C@H](C)N(C)C(=O)[C@H](CC(C)C)NC(=O)CN(CCC)C(=O)[C@H]2CCCN2C1=O [LA07, O=C(N(C)[C@H](C(OCC)=O)CSCC(N[C@H](C(N(C)[C@@H](C)C(N[C@@H](CCC)C(N1[C@H](CCC1)C(N(CCC)CC(N[C@H]2CC(C)C)=O)=O)=O)=O)=O)CC(C)C)=O)[C@H](CC(C)C)NC([C@H](C)N(C)C2=O)=O] ({CH2CO}-L[NMeA][Nva][dP][NPrGly]L[NMeA]L[NMeC]-OEt; thioether N-9)	1.3	6.6	122 (≈ 123 µg/mL)	8.4				Papp at 10 µM [6]: 3 ×10⁻⁶ cm/s
CCOC(=O)[C@@H]1CSCC(=O)N[C@H](CC)C(=O)N(CC(C)C)CC(=O)N[C@@H](CC(C)C)C(=O)N(C)[C@H](C)C(=O)N(C)[C@@H](C)C(=O)N[C@H](CC(C)C)C(=O)N(C)[C@@H](C)C(=O)N[C@@H](CC(C)C)C(=O)N1C [B1-7L, O=C([C@@H](NC([C@@H](N(C([C@H](NC([C@@H](N(C([C@H](N(C)C([C@@H](NC(CN1CC(C)C)=O)CC(C)C)=O)C)=O)C)C)=O)CC(C)C)=O)C)C)=O)CC(C)C)N([C@@H](CSCC(N[C@H](CC)C1=O)=O)C(OCC)=O)C] ({CH2CO}-[dAbu][Nleu]L[dNMeA][NMeA][dL][NMeA]L[NMeC]-OEt; thioether N-9)					5.7	1.2		MDCK Pe_avg ([5]; dog, MDCK, 3 h, 10 µM, pH 7.4): 1.21 ×10⁻⁶ cm/s
CCOC(=O)[C@@H]1CSCC(=O)N[C@@H](CC(C)C)C(=O)N(CC)CC(=O)N[C@@H](CC(C)C)C(=O)N2CCC[C@@H]2C(=O)N(C)[C@@H](C)C(=O)N[C@@H](CC)C(=O)N(C)[C@@H](C)C(=O)N[C@@H](CC(C)C)C(=O)N1C [LB02, O=C(N(C)[C@H](C(OCC)=O)CSCC(N[C@H](C1=O)CC(C)C)=O)[C@H](CC(C)C)NC([C@H](C)N(C)C([C@H](CC)NC([C@H](C)N(C)C([C@@H]2N(C([C@H](CC(C)C)NC(CN1CC)=O)=O)CCC2)=O)=O)=O)=O] ({CH2CO}-L[NEtG]L[dP][NMeA][Abu][NMeA]L[NMeC]-OEt; thioether N-9)	1.1	51.1	126 (≈ 124 µg/mL)	1.8			1.77	Papp at 10 µM [6]: 1 ×10⁻⁶ cm/s
CCOC(=O)[C@@H]1CSCC(=O)N[C@@H](CC)C(=O)N(CC(C)C)CC(=O)N[C@@H](CC(C)C)C(=O)N(C)[C@H](C)C(=O)N(C)[C@@H](C)C(=O)N[C@H](CC(C)C)C(=O)N(C)[C@H](C)C(=O)N[C@@H](CC(C)C)C(=O)N1C [B1-1L, O=C([C@@H](NC([C@H](N(C([C@H](NC([C@@H](N(C([C@H](N(C)C([C@@H](NC(CN1CC(C)C)=O)CC(C)C)=O)C)=O)C)C)=O)CC(C)C)=O)C)C)=O)CC(C)C)N([C@@H](CSCC(N[C@@H](CC)C1=O)=O)C(OCC)=O)C] ({CH2CO}-[Abu][Nleu]L[dNMeA][NMeA][dL][dNMeA]L[NMeC]-OEt; thioether N-9)					0.5		0.03	Papp at 10 µM ([1]; pH 7.4, PAMPA Pe_avg): 0.455 ×10⁻⁶ cm/s
CCOC(=O)[C@@H]1CSCC(=O)N[C@H](CC)C(=O)N(CC(C)C)CC(=O)N[C@@H](CC(C)C)C(=O)N(C)[C@H](C)C(=O)N(C)[C@@H](C)C(=O)N[C@@H](CC(C)C)C(=O)N(C)[C@H](C)C(=O)N[C@@H](CC(C)C)C(=O)N1C [B1-6L, O=C([C@@H](NC([C@H](N(C([C@@H](NC([C@@H](N(C([C@H](N(C)C([C@@H](NC(CN1CC(C)C)=O)CC(C)C)=O)C)=O)C)C)=O)CC(C)C)=O)C)C)=O)CC(C)C)N([C@@H](CSCC(N[C@H](CC)C1=O)=O)C(OCC)=O)C] ({CH2CO}-[dAbu][Nleu]L[dNMeA][NMeA]L[dNMeA]L[NMeC]-OEt; thioether N-9)					0.7	0.4	0.39	Papp at 10 µM ([1]; pH 7.4, PAMPA Pe_avg): 0.738 ×10⁻⁶ cm/s
CCOC(=O)[C@@H]1CSCC(=O)N[C@H](CC)C(=O)N(CC(C)C)CC(=O)N[C@@H](CC(C)C)C(=O)N(C)[C@H](C)C(=O)N(C)[C@@H](C)C(=O)N[C@H](CC(C)C)C(=O)N(C)[C@H](C)C(=O)N[C@@H](CC(C)C)C(=O)N1C [B1, O=C([C@@H](NC([C@H](N(C([C@H](NC([C@@H](N(C([C@H](N(C)C([C@@H](NC(CN1CC(C)C)=O)CC(C)C)=O)C)=O)C)C)=O)CC(C)C)=O)C)C)=O)CC(C)C)N([C@@H](CSCC(N[C@H](CC)C1=O)=O)C(OCC)=O)C] ({CH2CO}-[dAbu][Nleu]L[dNMeA][NMeA][dL][dNMeA]L[NMeC]-OEt; thioether N-9)					10.1	1.3	1.27	Papp at 10 µM ([1]; pH 7.4, Papp): ~10 ×10⁻⁶ cm/s
CCC[C@@H]1NC(=O)CN(CCC)C(=O)[C@H](CC(C)C)NC(=O)CSC[C@@H](C(=O)OCC)N(C)C(=O)[C@H](CC(C)C)NC(=O)[C@H](C)N(C)C(=O)[C@H](CC(C)C)NC(=O)[C@H](C)N(C)C(=O)[C@H]2CCCN2C1=O [LB07, O=C(N(C)[C@H](C(OCC)=O)CSCC(N[C@H](C1=O)CC(C)C)=O)[C@H](CC(C)C)NC([C@H](C)N(C)C([C@H](CC(C)C)NC([C@H](C)N(C)C([C@@H]2N(C([C@H](CCC)NC(CN1CCC)=O)=O)CCC2)=O)=O)=O)=O] ({CH2CO}-L[NPrGly][Nva][dP][NMeA]L[NMeA]L[NMeC]-OEt; thioether N-9)	2.2		132 (≈ 133 µg/mL)	3.2	3.1	3.2	3.15	
CCC[C@@H]1NC(=O)CN(CC)C(=O)[C@H](CC(C)C)NC(=O)CSC[C@@H](C(=O)OCC)N(C)C(=O)[C@H](CC(C)C)NC(=O)[C@H](C)N(C)C(=O)[C@H](CC2CCCCC2)NC(=O)[C@H](C)N(C)C(=O)[C@H]2CCCN2C1=O [LB09, O=C(N(C)[C@H](C(OCC)=O)CSCC(N[C@H](C1=O)CC(C)C)=O)[C@H](CC(C)C)NC([C@H](C)N(C)C([C@H](CC2CCCCC2)NC([C@H](C)N(C)C([C@@H]3N(C([C@H](CCC)NC(CN1CC)=O)=O)CCC3)=O)=O)=O)=O] ({CH2CO}-L[NEtG][Nva][dP][NMeA][Cha][NMeA]L[NMeC]-OEt; thioether N-9)	1.4	6.4	19 (≈ 19.7 µg/mL)	4.4				
CCOC(=O)[C@@H]1CSCC(=O)N[C@H](CC)C(=O)N(CC(C)C)CC(=O)N[C@@H](CC(C)C)C(=O)N2CCC[C@@H]2C(=O)N(C)[C@@H](C)C(=O)N[C@H](CC(C)C)C(=O)N(C)[C@H](C)C(=O)N[C@@H](CC(C)C)C(=O)N1C [B1-4dP, O=C([C@@H](NC([C@H](N(C([C@H](NC([C@@H](N(C([C@@H]1N(CCC1)C([C@@H](NC(CN2CC(C)C)=O)CC(C)C)=O)=O)C)C)=O)CC(C)C)=O)C)C)=O)CC(C)C)N([C@@H](CSCC(N[C@H](CC)C2=O)=O)C(OCC)=O)C] ({CH2CO}-[dAbu][Nleu]L[dP][NMeA][dL][dNMeA]L[NMeC]-OEt; thioether N-9)					0.1		0.0274	Papp at 10 µM ([1]; pH 7.4, PAMPA Pe_avg): 0.213 ×10⁻⁶ cm/s
